Values joined by “and” are separate entries in the source; they are usually repeats but may differ in a detail not shown here. Identical values can stand only once. Like-named read-outs stand apart in the source and are kept apart here.
Experiments:
[1] = target: ScNAGK in the presence of PpPII (Porphyra purpurea, UniProt P51254); test: AGPR-coupled NAGK activity assay with PpPII; format: biochemical, Synechocystis sp. PCC 6803; Porphyra purpurea; settings: 4 mM ADP with 1 mM ATP
From the text: (§1) All available structural information of PII proteins revelas that ATP and ADP bind to the same binding sites[2],[7]. When ATP and ADP are simultaneously present, they will compete for binding to the PII trimer. Since, the ATP/ADP binding site of the red algal PpPII protein is highly conserved (Fig. 1), competition between the nucleotides will occur. Since the activation of NAGK by PII is dependent on the ATP-ligated state of PII[9] and ADP inhibits PII-NAGK complex formation[9],[31], competition between ATP/ADP for PII binding can be monitored by measuring NAGK activity[31] under different ATP/ADP ratios. For this assay, we used an AGPR-coupled activity assay for NAGK[33], which allows measurement of NAGK activity in presence of ADP. Different concentrations of ADP were added to reaction mixtures containing either 1 mM or 2 mM ATP, in the absence or presence of PpPII (Fig. 8). Addition of ADP led to a monotonical and shallow decrease in the activity of ScNAGK at both fixed ATP concentration. […]
(§2) The change in NADPH absorbance was recorded at 340 nm as described previously[31],[33], in a reaction buffer composed of 50 mM potassium phosphate (pH 7.0), 50 mM KCl, 20 mM MgCl2, 0.2 mM NADPH and 0.5 mM DTT. […] The reaction was started by the addition of ScNAGK and was recorded for 10 min with a spectrophotometer (SPECORD 210 PLUS, Analytik Jena). Kinetic constants were calculated as descried above.

PpPII = PpPII (Porphyra purpurea, UniProt P51254); test: ITC binding of small effector molecules to red algal PpPII
Chain of PpPII (P51254 whole entry): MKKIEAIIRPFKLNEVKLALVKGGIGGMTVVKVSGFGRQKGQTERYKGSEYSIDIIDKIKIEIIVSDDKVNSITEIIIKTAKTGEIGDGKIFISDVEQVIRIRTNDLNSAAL
Method: To gain additional insights into the ligand binding properties of PpPII in comparison to cyanobacterial and chloroplastid PII proteins, isothermal titration calorimetry (ITC) experiments were performed using highly purified Strep-tagged or His-tagged recombinant PpPII, SyPII, CrPII, and PhyscoPII proteins (Supplementary Fig. S1) with different protein/ligand/ concentrations to determine the best fitting conditions of the binding model. The titration experiments were repeated with different protein preparations to confirm the reproducibility of the results. The raw isothermal data were fitted into one-binding site as well as three-sequential binding sites to define the best fitting model. Fitting using a one binding site model states an average Kd value for all available binding sites and the mean of the stoichiometry of bound ligands.
The ITC experiments were done using a VP-ITC microcalorimeter (MicroCal, LCC). All details for determination of binding constants for small effector molecules using ITC are fully described in the supplementary information. Heat isotherms of the dilution of the ligand in the cell buffer were collected in a blank run for each experiment in the absence of protein. The binding isotherms were calculated from received data and fitted to one-site and three-sequential binding sites models using the MicroCal ORIGIN software (Northampton) as described. All titrations were performed in duplicates with different purification batches of recombinant PII proteins. The association binding constant (Ka) was generated from the software by de-convolution and curve fitting. For calculation of dissociation constant (Kd), the Ka value was inversed.
Supplementary Information […]
Determination of Binding Constants for Small Effector Molecules using Isothermal […]
The binding of the small effector molecules to the recombinant PII proteins was tested using isothermal titration calarmity (ITC); VP-ITC microcalorimeter (MicroCal). All titrations were performed on 20°C using […] injection syringe with injection 6 µl or 10 µl of the tested ligands for 45 or 29 times, respectively into the cell (1.4 ml) with continuous stirring at 155 rpm. All tested ligands were high grade, prepared freshly in the same buffer of the protein and purchased from Sigma-Aldrich. Heat isotherms for the dilution of the ligand in the cell buffer were collected in a blank run in the absence of protein. The received calorimetric data were analyzed using MicroCal Origin software and fitted into one-site and three-sequential binding sites models, as indicated by the manufacture for calculation of binding isotherms9. For data reproducibility, the titrations were performed in duplicates with different purification batches of recombinant PII proteins. The association binding constant (Ka) was generated from the software by de-convolution and curve fitting. For calculation of dissociation constant (Kd), the Ka value was inversed.
For determination the binding isotherms of red algal PpPII protein, a buffer system composed of […]
used. For determination ATP and ADP binding isotherms upon the binding to PpPII protein, His- […]
against 2 mM ATP or 2 mM ADP. For determination of ATP and ADP binding isotherms in […]
concentration) was titrated against 0.5 mM of ATP or 1 mM ADP, respectively. However, for […]
of 1 mM of ATP or 1 mM ADP. […]

ScNAGK = target: T1, ScNAGK (Synechocystis sp., UniProt P73326); test: AGPR-coupled NAGK activity assay without PpPII; format: biochemical, Synechocystis sp. PCC 6803; settings: absence of PpPII, comparing 0 and 4 mM ADP, at 1 mM or 2 mM ATP
T1 sequence (P73326 1-297): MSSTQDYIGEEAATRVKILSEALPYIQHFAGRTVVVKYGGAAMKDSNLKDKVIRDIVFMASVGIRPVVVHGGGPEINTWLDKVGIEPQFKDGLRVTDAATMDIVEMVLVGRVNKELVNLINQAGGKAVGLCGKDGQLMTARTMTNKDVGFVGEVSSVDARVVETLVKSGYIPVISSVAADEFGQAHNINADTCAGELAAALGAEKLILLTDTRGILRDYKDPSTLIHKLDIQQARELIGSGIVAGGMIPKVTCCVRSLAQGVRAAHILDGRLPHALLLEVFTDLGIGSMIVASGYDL
From the text: as §1, §2

Chain of ScNAGK in the presence of PpPII (P51254 whole entry): as the sequence (P51254 whole entry) above

Compound: Nc1ncnc2c1ncn2[C@@H]1O[C@H](COP(=O)(O)OP(=O)(O)O)[C@@H](O)[C@H]1O [ADP]
- ScNAGK activity in the presence of PpPII at the highest ADP/ATP ratio [1]: as low as ScNAGK activity in the absence of PpPII
- N, number of calculated binding sites (one-site binding model) (PpPII; in presence 2-OG (1 mM)): 2.7
- Kd (PpPII; in presence 2-OG (1 mM), read-out: Average Kd (one-site binding model)): 10.8 ± 2.8 µM
- Kd (PpPII; in presence 2-OG (1 mM), read-out: Kd1 (three-sites binding model)): 10.3 ± 10 µM
- Kd (PpPII; in presence 2-OG (1 mM), read-out: Kd2 (three-sites binding model)): 43.6 ± 4.7 µM
- Kd (PpPII; in presence 2-OG (1 mM), read-out: Kd3 (three-sites binding model)): 125.9 ± 0.9 µM
- N, number of calculated binding sites (one-site binding model) (PpPII; titrant alone, per PII trimer): 2.7
- Kd (PpPII; titrant alone, read-out: Average Kd (one-site binding model)): ~7.2 µM and 7.2 µM
- Kd (PpPII; titrant alone, read-out: Kd1 (three-sites binding model)): 3.4 ± 0.5 µM
- Kd (PpPII; titrant alone, read-out: Kd2 (three-sites binding model)): 15.2 ± 0.7 µM
- Kd (PpPII; titrant alone, read-out: Kd3 (three-sites binding model)): 132 ± 2.7 µM
- reduction of ScNAGK activity (ScNAGK): about 1.8 fold

Source: paper PMC5768801, “The PII signaling protein from red algae represents an evolutionary link between cyanobacterial and Chloroplastida PII proteins” (Scientific Reports, 2018)
